From ChEMBL document CHEMBL3885881, “DrugMatrix”

Organism: Rattus norvegicus
Experiment: DrugMatrix - Regimen: Daily Repeat
Type: toxicity, organism-based, Sprague-Dawley
Set-up: regimen Daily Repeat, gender Male, age 6-8 weeks
Conditions: in vivo, po, route oral GAVAGE, vehicle .5 % CMC; for BASOPHIL / EOSINOPHIL / ERYTHROCYTE COUNT / HEMATOCRIT / HEMOGLOBIN / LEUKOCYTE COUNT / LYMPHOCYTE / MEAN CORPUSCULAR HEMOGLOBIN / MEAN CORPUSCULAR HEMOGLOBIN CONCENTRATION / MEAN CORPUSCULAR VOLUME / MONOCYTE / NEUTROPHIL / PLATELET COUNT: tissue Blood; for ALANINE AMINOTRANSFERASE / ALBUMIN / ALKALINE PHOSPHATASE / ASPARTATE AMINOTRANSFERASE / BLOOD UREA NITROGEN / CHLORIDE / CHOLESTEROL / CREATINE PHOSPHOKINASE / CREATININE / GLUCOSE / PHOSPHORUS / POTASSIUM / SODIUM / TOTAL BILIRUBIN / TOTAL PROTEIN: tissue Plasma
[1] = 0 mg/kg, 72 h, dose level Control, time 3 day
[2] = 0 mg/kg, 120 h, dose level Control, time 5 day
[3] = 25 mg/kg, 72 h, dose level Low, time 3 day
[4] = 25 mg/kg, 120 h, dose level Low, time 5 day

Q: For `C[C@]12CCC(=O)C=C1CC[C@@H]1[C@@H]2C(=O)C[C@@]2(C)[C@H]1CC[C@]2(O)C(=O)CO` [CORTISONE], which BASOPHIL [1] is on record?
A: 1.52%

Q: What about the EOSINOPHIL [1] of the same compound?
A: 0.98%

Q: And the “ERYTHROCYTE COUNT” value [1]?
A: 6.96 x10E6/uL

Q: And the HEMATOCRIT [1]?
A: 44.65%

Q: What about the HEMOGLOBIN [1] of the same compound?
A: 13.62 G/DL

Q: What about the “LEUKOCYTE COUNT” value [1] of the same compound?
A: 9.83 x10E3/uL

Q: And the LYMPHOCYTE [1]?
A: 76.48%

Q: And the “MEAN CORPUSCULAR HEMOGLOBIN” value [1]?
A: 19.57 pg

Q: What about the “MEAN CORPUSCULAR HEMOGLOBIN CONCENTRATION” value [1] of the same compound?
A: 30.47 G/DL

Q: What about the “MEAN CORPUSCULAR VOLUME” value [1] of the same compound?
A: 64.22 fL

Q: And the MONOCYTE [1]?
A: 2.13%

Q: And the NEUTROPHIL [1]?
A: 18.6%

Q: And the “PLATELET COUNT” value [1]?
A: 1217.17 x10E3/uL

Q: What about the “ALANINE AMINOTRANSFERASE” value [1] of the same compound?
A: 41 u/L

Q: And the ALBUMIN [1]?
A: 3.77 G/DL

Q: And the “ALKALINE PHOSPHATASE” value [1]?
A: 411.83 u/L

Q: And the “ASPARTATE AMINOTRANSFERASE” value [1]?
A: 62.83 u/L

Q: What about the “BLOOD UREA NITROGEN” value [1] of the same compound?
A: 15.17 mg/dL

Q: And the CHLORIDE [1]?
A: 104.33 MEQ/L

Q: And the CHOLESTEROL [1]?
A: 71.17 mg/dL

Q: What about the “CREATINE PHOSPHOKINASE” value [1] of the same compound?
A: 123.5 u/L

Q: And the CREATININE [1]?
A: 0.55 mg/dL

Q: What about the GLUCOSE [1] of the same compound?
A: 182.67 mg/dL

Q: What about the PHOSPHORUS [1] of the same compound?
A: 11.23 mg/dL

Q: And the POTASSIUM [1]?
A: 7.03 MEQ/L

Q: And the SODIUM [1]?
A: 148 MEQ/L

Q: And the “TOTAL BILIRUBIN” value [1]?
A: 0.57 mg/dL

Q: And the “TOTAL PROTEIN” value [1]?
A: 6.85 G/DL

Q: And the BASOPHIL [2]?
A: 1.35%

Q: And the EOSINOPHIL [2]?
A: 0.43%

Q: And the “ERYTHROCYTE COUNT” value [2]?
A: 6.96 x10E6/uL

Q: And the HEMATOCRIT [2]?
A: 44.35%

Q: What about the HEMOGLOBIN [2] of the same compound?
A: 13.98 G/DL

Q: And the “LEUKOCYTE COUNT” value [2]?
A: 9.45 x10E3/uL

Q: What about the LYMPHOCYTE [2] of the same compound?
A: 80.83%

Q: What about the “MEAN CORPUSCULAR HEMOGLOBIN” value [2] of the same compound?
A: 20.1 pg

Q: What about the “MEAN CORPUSCULAR HEMOGLOBIN CONCENTRATION” value [2] of the same compound?
A: 31.52 G/DL

Q: What about the “MEAN CORPUSCULAR VOLUME” value [2] of the same compound?
A: 63.72 fL

Q: What about the MONOCYTE [2] of the same compound?
A: 2.37%

Q: And the NEUTROPHIL [2]?
A: 14.05%

Q: What about the “PLATELET COUNT” value [2] of the same compound?
A: 1298 x10E3/uL

Q: What about the “ALANINE AMINOTRANSFERASE” value [2] of the same compound?
A: 42.17 u/L

Q: What about the ALBUMIN [2] of the same compound?
A: 3.77 G/DL

Q: What about the “ALKALINE PHOSPHATASE” value [2] of the same compound?
A: 419 u/L

Q: What about the “ASPARTATE AMINOTRANSFERASE” value [2] of the same compound?
A: 66.67 u/L

Q: What about the “BLOOD UREA NITROGEN” value [2] of the same compound?
A: 16.67 mg/dL

Q: What about the CHLORIDE [2] of the same compound?
A: 103.17 MEQ/L

Q: And the CHOLESTEROL [2]?
A: 66.33 mg/dL

Q: What about the “CREATINE PHOSPHOKINASE” value [2] of the same compound?
A: 148.33 u/L

Q: And the CREATININE [2]?
A: 0.58 mg/dL

Q: What about the GLUCOSE [2] of the same compound?
A: 196.83 mg/dL

Q: What about the PHOSPHORUS [2] of the same compound?
A: 11.8 mg/dL

Q: And the POTASSIUM [2]?
A: 6.47 MEQ/L

Q: And the SODIUM [2]?
A: 148.33 MEQ/L

Q: What about the “TOTAL BILIRUBIN” value [2] of the same compound?
A: 0.53 mg/dL

Q: What about the “TOTAL PROTEIN” value [2] of the same compound?
A: 6.77 G/DL

Q: And the BASOPHIL [3]?
A: 2.4%

Q: What about the EOSINOPHIL [3] of the same compound?
A: 0.4%

Q: And the “ERYTHROCYTE COUNT” value [3]?
A: 6.64 x10E6/uL

Q: And the HEMATOCRIT [3]?
A: 45.5%

Q: What about the HEMOGLOBIN [3] of the same compound?
A: 13.9 G/DL

Q: And the “LEUKOCYTE COUNT” value [3]?
A: 7.9 x10E3/uL

Q: And the LYMPHOCYTE [3]?
A: 78.6%

Q: What about the “MEAN CORPUSCULAR HEMOGLOBIN” value [3] of the same compound?
A: 21 pg

Q: And the “MEAN CORPUSCULAR HEMOGLOBIN CONCENTRATION” value [3]?
A: 30.6 G/DL

Q: What about the “MEAN CORPUSCULAR VOLUME” value [3] of the same compound?
A: 68.5 fL

Q: What about the MONOCYTE [3] of the same compound?
A: 2.95%

Q: What about the NEUTROPHIL [3] of the same compound?
A: 15.4%

Q: What about the “PLATELET COUNT” value [3] of the same compound?
A: 1648.5 x10E3/uL

Q: What about the “ALANINE AMINOTRANSFERASE” value [3] of the same compound?
A: 43 u/L

Q: And the ALBUMIN [3]?
A: 3.8 G/DL

Q: What about the “ALKALINE PHOSPHATASE” value [3] of the same compound?
A: 401 u/L

Q: What about the “ASPARTATE AMINOTRANSFERASE” value [3] of the same compound?
A: 68.67 u/L

Q: What about the “BLOOD UREA NITROGEN” value [3] of the same compound?
A: 12 mg/dL

Q: What about the CHLORIDE [3] of the same compound?
A: 103.67 MEQ/L

Q: And the CHOLESTEROL [3]?
A: 62.67 mg/dL

Q: And the “CREATINE PHOSPHOKINASE” value [3]?
A: 120.67 u/L

Q: What about the CREATININE [3] of the same compound?
A: 0.53 mg/dL

Q: What about the GLUCOSE [3] of the same compound?
A: 178.33 mg/dL

Q: What about the PHOSPHORUS [3] of the same compound?
A: 12.83 mg/dL

Q: And the POTASSIUM [3]?
A: 6.87 MEQ/L

Q: And the SODIUM [3]?
A: 149 MEQ/L

Q: And the “TOTAL BILIRUBIN” value [3]?
A: 0.47 mg/dL

Q: And the “TOTAL PROTEIN” value [3]?
A: 6.63 G/DL

Q: And the BASOPHIL [4]?
A: 1.53%

Q: What about the EOSINOPHIL [4] of the same compound?
A: 0.33%

Q: And the “ERYTHROCYTE COUNT” value [4]?
A: 7.03 x10E6/uL

Q: And the HEMATOCRIT [4]?
A: 45.13%

Q: What about the HEMOGLOBIN [4] of the same compound?
A: 14.27 G/DL

Q: What about the “LEUKOCYTE COUNT” value [4] of the same compound?
A: 9 x10E3/uL

Q: And the LYMPHOCYTE [4]?
A: 77.9%

Q: What about the “MEAN CORPUSCULAR HEMOGLOBIN” value [4] of the same compound?
A: 20.33 pg

Q: What about the “MEAN CORPUSCULAR HEMOGLOBIN CONCENTRATION” value [4] of the same compound?
A: 31.67 G/DL

Q: And the “MEAN CORPUSCULAR VOLUME” value [4]?
A: 64.27 fL

Q: What about the MONOCYTE [4] of the same compound?
A: 2.7%

Q: And the NEUTROPHIL [4]?
A: 16.73%

Q: What about the “PLATELET COUNT” value [4] of the same compound?
A: 1381.67 x10E3/uL

Q: What about the “ALANINE AMINOTRANSFERASE” value [4] of the same compound?
A: 45 u/L

Q: What about the ALBUMIN [4] of the same compound?
A: 3.7 G/DL

Q: What about the “ALKALINE PHOSPHATASE” value [4] of the same compound?
A: 435 u/L

Q: And the “ASPARTATE AMINOTRANSFERASE” value [4]?
A: 68.33 u/L

Q: And the “BLOOD UREA NITROGEN” value [4]?
A: 15.33 mg/dL

Q: And the CHLORIDE [4]?
A: 103 MEQ/L

Q: And the CHOLESTEROL [4]?
A: 54 mg/dL

Q: And the “CREATINE PHOSPHOKINASE” value [4]?
A: 128.67 u/L

Q: What about the CREATININE [4] of the same compound?
A: 0.5 mg/dL

Q: And the GLUCOSE [4]?
A: 186 mg/dL

Q: And the PHOSPHORUS [4]?
A: 12.57 mg/dL

Q: What about the POTASSIUM [4] of the same compound?
A: 6.6 MEQ/L

Q: And the SODIUM [4]?
A: 148 MEQ/L

Q: And the “TOTAL BILIRUBIN” value [4]?
A: 0.47 mg/dL

Q: What about the “TOTAL PROTEIN” value [4] of the same compound?
A: 6.6 G/DL
